Reference: patent publication US5021411A, “Imidazodiazepine derivatives” (Hoffmann-La Roche Inc., priority 1988, dated 1991)

These compounds were tested against central benzodiazepine receptors (specific benzodiazepine receptors in the cerebral cortex) (assay: Inhibition of the specific binding of tritiated diazepam at the specific benzodiazepine receptors in the cerebral cortex (affinity to central benzodiazepine receptors)). Details: read-out: Affinity to benzodiazepine receptors IC 50.
Text: The affinity of compounds of formula I to the central benzodiazepine receptors has been determined according to the method described in Life Science 20, 2101-2110 (1977) and Science 198, 849-851 (1977). According to this method, the inhibition of the binding of tritiated diazepam at the specific benzodiazepine receptors in the cerebral cortex by the respective test substances is ascertained. The IC50 ("50% inhibiting concentration") is that concentration of the respective test substance which brings about a 50 percent inhibition of the specific binding of the tritiated diazepam at the specific benzodiazepine receptors in the cerebral cortex.
With CN1Cc2c(C#CCOCC3CC3)ncn2-c2cccc(Cl)c2C1=O [A, 7-Chloro-3-[3-(cyclopropylmethoxy)-1-propynyl]-4,5-dihydro-5-methyl-6H-imidazo[1,5-a][1,4]benzodiazepin-6-one] the IC50 was 1.4 nM. In the case of CC(=O)OCC#Cc1ncn2c1CN(C)C(=O)c1c(Cl)cccc1-2 [B, 3-(7-chloro-5,6-dihydro-5-methyl-6-oxo-4H-imidazo[1,5-a][1,4]benzodiazepin-3-yl)-2-propynyl acetate], the IC50 is reported as 2.6 nM. Compound CN1Cc2c(C#CC(C)(C)OCC3CC3)ncn2-c2cccc(Cl)c2C1=O [C, 7-chloro-3-[3-(cyclopropylmethoxy)-3-methyl-1-butynyl]-4,5-dihydro-5-methyl-6H-imidazo[1,5-a][1,4]benzodiazepin-6-one] has an IC50 of 5 nM. Work on C/C(C#Cc1ncn2c1CN(C)C(=O)c1c(Cl)cccc1-2)=C/CO [D, 7-chloro-4,5-dihydro-3-[(Z)-5-hydroxy-3-methyl-3-penten-1-ynyl]-5-methyl-6H-imidazo[1,5-a][1,4]-benzodiazepin-6-one] yielded an IC50 of 1.4 nM. Compound C=CC(C)(O)C#Cc1ncn2c1CN(C)C(=O)c1c(Cl)cccc1-2 (stereo not drawn) [E, 7-chloro-4,5-dihydro-3-(3-hydroxy-3-methyl-4-penten-1-ynyl)-5-methyl-6H-imidazo[1,5-a][1,4]benzodiazepin-6-one] has an IC50 of 3.7 nM. In the case of C/C(C#Cc1ncn2c1CN(C)C(=O)c1c(Cl)cccc1-2)=C\CO [F, 7-chloro-4,5-dihydro-3-[(E)-5-hydroxy-3-methyl-3-penten-1-ynyl]-5-methyl-6H-imidazo[1,5-a][1,4]-benzodiazepin-6-one], the IC50 is reported as 2.2 nM.
